# Experimental data taken from PubChem BioAssay (NCI).
#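 Cultured in 96-well plates, cells were exposed to test compound for 48 hours across five concentrations. TGI: total growth inhibition.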
# What was measured:
# Experiment in all cases: NCI tumour cell line growth inhibition, 48 h
# [1] = system: OVCAR-3 ovarian
# [2] = system: MDA-MB-231 breast
# [3] = system: NCI-H460 lung
# [4] = system: HCT-116 colon
# [5] = system: MOLT-4 leukemia
# [6] = system: NCI-H226 lung
# [7] = system: PC-3 prostate
# [8] = system: NCI-H23 lung
# [9] = system: HT29 colon
# [10] = system: UACC-257 melanoma
# [11] = system: T-47D breast
# [12] = system: A498 renal
# [13] = system: HS 578T breast
# [14] = system: MDA-MB-435
# [15] = system: SK-OV-3 ovarian
# [16] = system: SK-MEL-28 melanoma
# [17] = system: HOP-92 NSCLC
# [18] = system: SK-MEL-5 melanoma
# [19] = system: CAKI-1 renal
# [20] = system: IGROV1 ovarian
# [21] = system: MDA-N
# [22] = system: SK-MEL-2 melanoma
# [23] = system: HCT-15 colon
# [24] = system: KM12 colon
# [25] = system: SF-539 CNS
# [26] = system: UO-31 renal
# [27] = system: LOX IMVI melanoma
# [28] = system: K-562 leukemia
# [29] = system: SR leukemia
# [30] = system: HL-60(TB) leukemia
# [31] = system: NCI-H522 lung
# [32] = system: RPMI-8226 leukemia
# [33] = system: OVCAR-5 ovarian
# [34] = system: U251 CNS
# [35] = system: SW-620 colon
# [36] = system: HOP-62 NSCLC
# [37] = system: RXF 393 renal
# [38] = system: MCF7 breast
# [39] = system: BT-549 breast
# [40] = system: SN12C renal
# [41] = system: SNB-75 CNS
# [42] = system: 786-0 renal
# [43] = system: HCC-2998 colon
# [44] = system: SNB-19 CNS
# [45] = system: DU-145 prostate
# [46] = system: MALME-3M melanoma
# [47] = system: UACC-62 melanoma
# [48] = system: M14 melanoma
# [49] = system: SF-268 CNS
# [50] = system: EKVX NSCLC
# [51] = system: A549 NSCLC
# [52] = system: OVCAR-8 ovarian
# [53] = system: ACHN renal
# [54] = system: TK-10 renal
# [55] = system: SF-295 CNS
# [56] = system: COLO 205 colon
# [57] = system: CCRF-CEM leukemia
smiles,measurement,setting,value
CC1C(c2ccccc2O)c2cc3c(cc2OC1N1CCCC1)OCO3 (configuration not stated),TGI,[1],56.6 µM
same,TGI,[2],61.2 µM
same,TGI,[3],32.4 µM
same,TGI,[4],43.1 µM
same,TGI,[5],65 µM
same,TGI,[6],> 100 µM
same,TGI,[7],98.8 µM
same,TGI,[8],> 100 µM
same,TGI,[9],30.8 µM
same,TGI,[10],92.5 µM
same,TGI,[11],> 100 µM
same,TGI,[12],60.7 µM
same,TGI,[13],43.3 µM
same,TGI,[14],81.9 µM
same,TGI,[15],> 100 µM
same,TGI,[16],46.6 µM
same,TGI,[17],69.3 µM
same,TGI,[18],> 100 µM
same,TGI,[19],> 100 µM
same,TGI,[20],> 100 µM
same,TGI,[21],46.8 µM
same,TGI,[22],80 µM
same,TGI,[23],> 100 µM
same,TGI,[24],> 100 µM
same,TGI,[25],50.2 µM
same,TGI,[26],> 100 µM
same,TGI,[27],44.3 µM
same,TGI,[28],41.8 µM
same,TGI,[29],54.2 µM
same,TGI,[30],35.1 µM
same,TGI,[31],70.3 µM
same,TGI,[32],57.5 µM
same,TGI,[33],> 100 µM
same,TGI,[34],> 100 µM
same,TGI,[35],44.4 µM
same,TGI,[36],49.8 µM
same,TGI,[37],31.8 µM
same,TGI,[38],67.4 µM
same,TGI,[39],> 100 µM
same,TGI,[40],35.8 µM
same,TGI,[41],88 µM
same,TGI,[42],91 µM
same,TGI,[43],> 100 µM
same,TGI,[44],> 100 µM
same,TGI,[45],> 100 µM
same,TGI,[46],80.2 µM
same,TGI,[47],> 100 µM
same,TGI,[48],36.8 µM
same,TGI,[49],> 100 µM
same,TGI,[50],> 100 µM
same,TGI,[51],> 100 µM
same,TGI,[52],> 100 µM
same,TGI,[53],> 100 µM
same,TGI,[54],> 100 µM
same,TGI,[55],74.9 µM
same,TGI,[56],55.5 µM
same,TGI,[57],> 100 µM
